Columns and labels:
[1] = system: WA09 hES cells; experiment: Phase 2 targeted biomarker assay, ornithine/cystine ratio, 9-point dose response; conditions: for Teratogenicity Potential (μM) O/C Ratio: human, 72 h
Procedure, shortened: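 WA09 hES cells (≤ passage 40), plated as single cells at 100,000/well on Matrigel in mTeSR1 with 10 μM Y27632, dosed 24 h later with nine 3-fold dilutions, 0.04–300 μM, 0.1% DMSO, for 72 h. Final-24 h spent medium, spiked with 13C6-arginine and filtered (<10 kDa), analysed by LC-HRMS; viability by CellTiter-Fluor.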

[2] = system: hES cells; experiment: devTOX computational model predictions (Version 2.0, Version 2.1) from hES cell metabolomics; type: cell-based, human; conditions: single dose per treatment (Dose column)
Source text: The selection process weighted the predictive capacity of a feature, overall intensity, and peak shape to identify very well behaved features/metabolites that could be measured by targeted LC-MS or even by other detection systems.
This simplified model is based on a ratio of the reference treatment (DMSO) normalized values of ADMA and cystine.

[3] = system: Rodent; conditions: cited from earlier work; for Rodent prediction: training and test set
[4] = system: Rabbit; conditions: training and test set; cited from earlier work
[5] = system: mouse embryonic stem cell; conditions: training and test set; weak/moderate and strong teratogens both labeled teratogen; cited from earlier work

SMILES	Classification by o/c ratio in the targeted biomarker assay [1]	O/C Ratio Prediction [1]	Targeted Biomarker Assay prediction [1]	Teratogenicity Potential (μM) O/C Ratio [1] [µM]	Model Predictions Version 2.0 [2]	Model Predictions Version 2.1 [2]	Rodent prediction [3]	Rabbit prediction [4]	mEST prediction [5]	Change in the o/c ratio, also relative to cytotoxicity [1]	Rodent developmental toxicity testing, result in words ([3]; relation to maternal toxicity where stated)
O=C1NC(=O)C(c2ccccc2)(c2ccccc2)N1 [Diphenylhydantoin]	misclassified	NON	NON	263.3	Non	Non	TER	TER	TER^b,i		
CC1=C(/C=C/C(C)=C/C=C/C(C)=C\C(=O)O)C(C)(C)CCC1 [13-cis Retinoic Acid]		TER	TER	0.0007	Ter	Ter	TER	TER	TER^p		
CC1=C(/C=C/C(C)=C/C=C/C(C)=C/C(=O)O)C(C)(C)CCC1 [All-trans Retinoic Acid]		TER	TER	0.00004	Ter	Ter	TER	TER	TER^b,p	change in the o/c ratio indicative of developmental toxicity in the absence of cytotoxicity	
NC(=O)N1c2ccccc2C=Cc2ccccc21 [Carbamazepine]		TER	TER	0.9	Ter	Ter	TER		TER^i		
O=C1CCC(N2C(=O)c3ccccc3C2=O)C(=O)N1 (stereo not drawn) [Thalidomide]		TER	TER	0.2	Ter	Ter	NON^a	TER		change in the o/c ratio indicative of developmental toxicity in the absence of cytotoxicity	did not indicate the compound's teratogenic potential in humans
